# Test system: clinical isolate of Klebsiella pneumoniae
# Test: Antibiotic susceptibility test (AST), MIC calling by automated microscopy imaging of microbial biomass in a 336-well AST-disc
# Type: cell-based
# Conditions: K. pneumoniae recovered from spiked positive blood culture flask, adjusted to 5x10^5 CFU/ml in CAMBH, 35° C., up to 5.5 hours total AST time; for MIC: Klebsiella pneumoniae, 5.5 h
# Description: Clinical isolates grown on agar plate were individually suspended in PBS and adjusted to 0.5 McFarland. A 1:100 dilution of this was added together with 9 ml of blood from a healthy donor to a blood culture flask (BD Bactec Plus Aerob) and incubated in a blood culture cabinet overnight. In the morning, after the BCF had turned positive a 500 μl aliquot of the positive BCF were used for the subsequent analysis.
# The value of the concentration determination was compared to a pre-determined standard curve and the concentration of microorganisms in the recovered suspension was automatically adjusted to the desired concentration (5×10^5 CFU/ml). For this experiment an aliquot of the concentration adjusted bacteria were plated on an agar plate to determine viable cell count to provide a control measure for the process.
# The concentration adjusted sample in CAMBH was added using an automated pipette via central access ports to a 336-well AST-disc pre-filled with dried antibiotics in various concentrations.
# Each well contain 20 μl of sample and is incubated at 35° C. An initial reading was taken after 30 minutes (reading 0). Subsequent readings (readings 1-6) were taken every hour up to 5.5 hours total AST time by imaging by automated microscopy.
# MIC antibiotic concentrations (measured in mg/I) were determined for a range of antibiotics. Each antibiotic were present in triplicates in the AST-consumable in this experiment.
Molecule,MIC values (replicate #1),MIC values (replicate #2),MIC values (replicate #3),MIC (replicate #1) [µg/mL],MIC (replicate #2) [µg/mL],MIC (replicate #3) [µg/mL]
Trimethoprim/Sulfamethoxasole,>16 mg/I,>16 mg/I,>16 mg/I,,,
NC[C@H]1O[C@H](O[C@H]2[C@H](O)[C@@H](O[C@H]3O[C@H](CO)[C@@H](O)[C@H](N)[C@H]3O)[C@H](N)C[C@@H]2N)[C@H](N)C[C@@H]1O [Tobramycin],,,,2,2,2
CO[C@@]1(NC(=O)Cc2cccs2)C(=O)N2C(C(=O)O)=C(COC(N)=O)CS[C@@H]21 [Cefoxitine],,,,2,4,2
ceftazidime-avibactam,16 mg/I,32 mg/I,32 mg/I,,,
CO/N=C(\C(=O)N[C@@H]1C(=O)N2C(C(=O)O)=C(COC(C)=O)CS[C@H]12)c1csc(N)n1 [Cefotaxime],,,,> 8,> 8,> 8
Piperacillin/Tazobactam,4 mg/I,4 mg/I,4 mg/I,,,
Gentamicin,0.5 mg/I,0.5 mg/I,0.5 mg/I,,,
CN(C)c1cc(NC(=O)CNC(C)(C)C)c(O)c2c1C[C@H]1C[C@H]3[C@H](N(C)C)C(O)=C(C(N)=O)C(=O)[C@@]3(O)C(O)=C1C2=O [Tigecyclin],0.5 mg/I,0.5 mg/I,0.5 mg/I,,,
Colistin,0.5 mg/I,1 mg/I,1 mg/I,,,
C[C@@H](O)[C@H]1C(=O)N2C(C(=O)O)=C(S[C@@H]3CN[C@H](C(=O)N(C)C)C3)[C@H](C)[C@H]12 [Meropenem],,,,≤ 0.0625,≤ 0.0625,≤ 0.0625
CC(C)(O/N=C(\C(=O)N[C@@H]1C(=O)N2C(C(=O)[O-])=C(C[n+]3ccccc3)CS[C@H]12)c1csc(N)n1)C(=O)O [Ceftazidime],,,,≤ 0.125,≤ 0.125,≤ 0.125
C[C@@H](O)[C@H]1C(=O)N2C(C(=O)O)=C(S[C@@H]3CN[C@H](C(=O)Nc4cccc(C(=O)O)c4)C3)[C@H](C)[C@H]12 [Ertapenem],,,,≤ 0.0156,0.0312,≤ 0.0156
C[C@@H](O)[C@H]1C(=O)N2C(C(=O)O)=C(SCCN=CN)C[C@H]12 [Imipinem],<=0.5 mg/I,<=0.5 mg/I,<=0.5 mg/I,,,
CO/N=C(\C(=O)N[C@@H]1C(=O)N2C(C(=O)O)=C(CSc3nc(=O)c(=O)[nH]n3C)CS[C@H]12)c1csc(N)n1 [Ceftriaxone],,,,> 8,> 8,> 8
C[C@H]1COc2c(N3CCN(C)CC3)c(F)cc3c(=O)c(C(=O)O)cn1c23 [Levofloxacin],,,,0.5,0.5,0.5
Ceftolozane-tazobactam,0.25 mg/I,0.25 mg/I,0.25 mg/I,,,
Amoxicillin/clavulanic acid,8 mg/I,16 mg/I,16 mg/I,,,
NCC[C@H](O)C(=O)N[C@@H]1C[C@H](N)[C@@H](O[C@H]2O[C@H](CN)[C@@H](O)[C@H](O)[C@H]2O)[C@H](O)[C@H]1O[C@H]1O[C@H](CO)[C@@H](O)[C@H](N)[C@H]1O [Amikacin],,,,1,2,1
